These results are taken from US7560106B2, “Rationally designed heparinases derived from heparinase I and II and methods of sequencing therewith” (Massachusetts Institute of Technology, priority 1998, dated 2009).

Changes are numbered by the printed parent chain. Numbers in names are those of the source. Read-outs that look alike come from different tables or passages of the source. Bounds are passed on as bounds.

Series [1] deals with T1, heparinase II (Pedobacter heparinus, UniProt C6XZB6).
T1 sequence (C6XZB6 26-772): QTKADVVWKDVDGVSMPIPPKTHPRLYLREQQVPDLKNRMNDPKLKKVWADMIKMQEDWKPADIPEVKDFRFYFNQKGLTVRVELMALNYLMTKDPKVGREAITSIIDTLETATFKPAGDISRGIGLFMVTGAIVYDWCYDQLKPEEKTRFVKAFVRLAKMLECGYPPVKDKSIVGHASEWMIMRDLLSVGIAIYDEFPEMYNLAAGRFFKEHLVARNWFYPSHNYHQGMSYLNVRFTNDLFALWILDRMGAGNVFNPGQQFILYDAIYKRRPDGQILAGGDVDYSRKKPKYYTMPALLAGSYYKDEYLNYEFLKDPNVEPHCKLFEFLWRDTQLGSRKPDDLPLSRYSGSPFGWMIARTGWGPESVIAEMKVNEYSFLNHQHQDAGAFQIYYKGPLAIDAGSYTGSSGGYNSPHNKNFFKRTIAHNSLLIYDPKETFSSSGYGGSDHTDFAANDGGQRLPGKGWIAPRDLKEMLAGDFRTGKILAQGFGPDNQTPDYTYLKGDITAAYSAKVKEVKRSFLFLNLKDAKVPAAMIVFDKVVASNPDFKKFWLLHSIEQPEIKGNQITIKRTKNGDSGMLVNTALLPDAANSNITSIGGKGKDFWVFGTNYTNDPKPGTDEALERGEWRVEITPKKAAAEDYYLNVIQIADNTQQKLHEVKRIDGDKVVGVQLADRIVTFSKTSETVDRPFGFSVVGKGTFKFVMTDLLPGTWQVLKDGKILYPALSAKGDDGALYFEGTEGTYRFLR
Kind of series: DEPC inactivation of heparinase II and reactivation with hydroxylamine. It counts as biochemical, Flavobacterium heparinum. To be noted: for kinact/KI: read-out: second-order rate constant of inactivation (converted); for initial activity recovered by DEPC-modified enzyme: 500 mM hydroxylamine.

The target in series [2] is T1, heparinase II. The series is described as follows: pCMB modification and inactivation of heparinase II. It counts as biochemical, Flavobacterium heparinum. An excerpt:
(§1) Heparinase II Activity Assay. Native heparinase II from Flavobacterium heparinum, was purified as described previously (Godavarti, R., and Sasisekharan, R (1996c) Biochem. Biophys. Res. Comm. 229, 770-777). The UV 232 nm assay to quantify native heparinase II enzymatic activity was similar to that reported for heparinase I (Bernstein, H., Yang, V. C., Cooney, C. L., Langer, R. (1988) Meth. Enzym. 137, 515-29). Briefly, the course of the reaction is monitored by measuring the increase in absorbance at 232 nm as a function of time under saturating substrate concentrations. With heparin as the substrate, the reaction was carried out at a concentration of 4 mg/ml in 50 mM sodium phosphate buffer, pH 7.3. With 2 mg/ml heparan sulfate, the reaction was measured in 50 mM sodium phosphate buffer, pH 6.9 (Sasisekharan, R., Moses, M. A., Nugent, M. A., Cooney, C. L., Langer, R. (1994) Proc. Natl. Acad. Sci., USA 91, 1524-1528). The temperature for all enzymatic activity measurements was kept constant at 35° C.
pCMB Modification Studies. […]. A control reaction mixture containing vehicle alone was run in tandem. At fixed time intervals, aliquots were withdrawn for the UV 232 nm enzyme activity assay.
(B) Reactivation of pCMB—modified heparinase II with DTT. Heparinase II (50 μg/ml) was incubated with 5 μM pCMB for 4 minutes and an aliquot was withdrawn to determine the fractional activity retained. DTT (10 mM) was then immediately added to the reaction mixture and to the control, which contained no pCMB. The mixtures were incubated at 4° C. Heparinase II activity was measured every half hour.
(C) Effect of salt on the inactivation of heparinase II by pCMB. Heparinase II was incubated with 5 μM pCMB in 50 mM sodium phosphate buffer, pH 7.0, with different salt concentrations (30, 60, 110, 180, 300, and 500 mM NaCl). A control mixture, which contained no additional salt, was also incubated with pCMB.
(D) Substrate protection of heparinase II against pCMB modification. Heparinase II (50 μg/ml) was preincubated with either 4 mg/ml heparin or 2 mg/ml heparan sulfate for 30 minutes prior to the addition of 5 μM pCMB and then the time course of inactivation was determined with the heparinase II activity assay.
(E) Quantification of pCMB—modified residues of heparinase II. Quantification of pCMB-modified residues of heparinase II was determined by difference spectra. […] The change in absorbance at 250 nm was monitored every 30 seconds for 10 minutes. The number of modified residues was determined using ∈=7,600 M^−1 cm^−1 (Boyer, P. D. (1952) J. Am. Chem. Soc. 76, 4331-4337). Heparinase II activity assays were completed under identical conditions with heparin as the substrate.
[…]. Less than 2% of total heparinase II enzymatic activity remained after this time interval. […]. Modified heparinase II was separated and concentrated. pCMB was removed via addition of DTT. [^3H]NEM was added to the reaction mixture; unreacted tritium was separated by RPHPLC and heparinase II was digested with Lys-C.

The nature of series [3]: Heparinase I UV 232 nm activity assay as a function of heparin concentration (Kcat, Km). It counts as biochemical, porcine. To be noted: for Kcat / Km: heparin 0 to 4 mg/ml, 5 mM calcium acetate, pH 7.0; for Kcat: 100 mM MOPS.
Source text: as §1
Heparinase I Activity Assay. The UV 232 nm assay to quantify heparinase I enzymatic activity was similar to that described in Example 1. With heparin as the substrate, the reaction was carried out at a concentration of 4 mg/ml in 100 mM MOPS, 5 mM calcium acetate, pH 7.0. The temperature for all enzymatic activity measurements was kept constant at 30° C. For the inactivation kinetic profiles, activity was measured as outlined above at precise time points.
(§2) Heparinase I Activity Assays: The UV 232 nm assay was used as described in Example 1. When measuring the enzyme activity as a function of heparin concentration, heparin concentrations varied from 0 to 4 mg/ml at a fixed calcium concentration of 5 mM (100 mM MOPS buffer/5 mM calcium acetate, pH 7.0). The data was then fit to an non-linear equation to determine Kcat and Km of heparinases I. Heparinase mutant activity was also investigated as a function of calcium concentration ranging from 0 to 10 mM. […] Activity is expressed as IU-μmol product formed/min using ∈=−3800-M^−1CM^−1.

The nature of series [4]: Fluorescence competition for calcium with probe rhod-5N. To be noted: apparent dissociation constant of rhod-5N for calcium with 3 μM enzyme; lower Kd′ means less binding of calcium by heparinase I. The method, then: Fluorescence Competition. To determine the effect of mutations in CB-1 and CB-2 on the ability of heparinase I to bind calcium, mutants with a dramatic drop in activity were tested for their ability to bind calcium. To accomplish this, we examined the ability of heparinase I and mutants to compete for free calcium with the calcium-chelating fluorescence probe rhod-5N. The fluorescence probe rhod-5N was dissolved and diluted in buffer A (10 mM MOPS and 100 mM KCl, pH 6.5). Buffer A and the water used in the study were run through a Chelex Resin column to remove trace amounts of calcium. In the absence of calcium, rhod-5N is not fluorescent, however upon binding calcium rhod-5N is fluorescent with an emission λmax of 576 nm. Before titration, rhod-5N and heparinase I were added to a quartz cuvette such that the final concentration of rhod-5N in the cuvette was 0.3 μM and heparinase I is 3 μM. To this solution was added aliquots of a calcium solution (20 mM) which had been previously equilibrated with 0.3 μM rhod-5N and 3 μM heparinase I. The stock was added such that the calcium concentration in the cuvette was 50, 100, 200, 500, 1000, 5000 μM. After allowing the solution to come to equilibrium, the sample was scanned from 560 nm to 600 nm with the excitation wavelength fixed at […]. The plot of I/Imax versus [Ca^++] was fitted to a non-linear equation to determine the apparent Kd (Kd′) value. Thus, Kd′ values represent the apparent dissociation constants for the fluorescence probe rhod-5N. Control samples without heparinase I were included in the study.

The nature of series [5]: Heparinase I activity as a function of calcium concentration (K0.5, calcium dependence). It counts as biochemical. The method, then: as §2
Series [6] in a line: Heparin-POROS affinity chromatography. It is filed as binding. To be noted: salt concentration at which enzyme elutes from heparin-POROS column; 10 mM Tris, 1 mM EDTA pH 7.0. The method, then: Heparin-POROS chromatography: About 30-40 μg of -L r-heparinase I and the various mutant enzymes were injected into a heparin POROS (4.6 mm×100) column (PerSeptive BioSystems, Framingham, Mass.) connected to BioCAD system (PerSeptive BioSystems). Proteins were eluted using a linear gradient of […] NaCl in 10 min (10 mM Tris, 1 mM EDTA pH 7.0) and monitored at 210 nm. EDTA was added to chelate any calcium ions that may be present in the buffers.

The mark [7] stands for this setting: calcium concentration at which half of the maximum enzyme activity was observed, calcium 0 to 10 mM, Table 4 first K0.5 column.

With `CCOC(=O)OC(=O)OCC` [DEPC, diethylpyrocarbonate], the “loss of heparinase II enzymatic activity” value at heparinase II [1] (2 mM DEPC, 10 minutes, towards heparin and heparan sulfate) turned out to be 90%. In addition, on heparinase II [1] (2 mM DEPC, ten minutes, pH 7.0), the “number of histidines modified” value is given as “roughly three”. Besides, the kinact/KI on heparinase II [1] (heparan sulfate as the substrate) is 4 M⁻¹ s⁻¹; on heparinase II [1] (heparin as the substrate) it was 2.67 M⁻¹ s⁻¹.

`NO` [Hydroxylamine]: the “initial activity recovered by DEPC-modified enzyme” value was “about 90%” at heparinase II [1] (8 hours, pH 7.0) and “about 80%” at heparinase II [1] (approximately 1.5 hours, pH 7.0, after inactivation to 50%). For the same molecule, the “activity restored after DEPC modification” value on heparinase II [1] (pH 8) was “over 70%”.

As for `O=C(O)c1cc[c]([Hg][Cl])cc1` [pCMB, p(chloromercuri)benzoate], the “time to complete inactivation of heparinase II” value at heparinase II [2] (10 μM) is no more than 15 min. This molecule returned a loss of activity on heparinase II [2] (20 μM pCMB) of 98%. In addition, the “number of cysteines modified” value at heparinase II [2] (20 μM pCMB) is given as 1.06 cysteines. Moreover, the “first-order rate constant of inactivation” value at heparinase II [2] (500 mM salt) amounted to 0.06 min⁻¹. The “drop of first order rate constant of inactivation” value at heparinase II [2] (between 0 and 100 mM NaCl, 5 μM pCMB) was 2 fold. For the same molecule, the “decrease of first order rate constant of inactivation” value at heparinase II [2] (between 0 and 300 mM NaCl, 5 μM pCMB) is on record as “more than 4 fold”. For the same molecule, the “k, first-order rate constant of inactivation” value at heparinase II [2] (pH 5.0) stood at 0.16 min⁻¹; on heparinase II [2] (pH 6.0) it was 0.14 min⁻¹; at heparinase II [2] (pH 7.0), 0.21 min⁻¹; on heparinase II [2] (pH 8.0) it was 0.24 min⁻¹. On heparinase II [2] (pH 7.0, 4° C.), the “second-order rate constant for the inactivation” value was determined as 667 M⁻¹ s⁻¹. Besides, the “total heparinase II enzymatic activity remaining” value on heparinase II [2] (stoichiometric amount of pCMB, 15 minutes) is given as “Less than 2%”. Besides, the “pCMB inactivation (Table 1 value)” value on heparinase II [2] (substrate heparan sulfate, protection reagent heparan sulfate) came to 0.09; at heparinase II [2] (substrate heparan sulfate, protection reagent heparin), 0.16; on heparinase II [2] (substrate heparan sulfate, protection reagent none) it was 0.21; on heparinase II [2] (substrate heparin, protection reagent heparan sulfate) it was 0.10; at heparinase II [2] (substrate heparin, protection reagent heparin), 0.16; on heparinase II [2] (substrate heparin, protection reagent none, 5 μM pCMB), 0.22.

B1: D212A/G213A/T216A: heparinase I CB-1 triple mutant (protein, UniProt Q05819 22-384, looked up, variant D212A G213A T216A)
Heparin lyase I: QQKKSGNIPYRVNVQADSAKQKAIIDNKWVAVGINKPYALQYDDKLRFNGKPSYRFELKAEDNSLEGYAAGETKGRTELSYSYATTNDFKKFPPSVYQNAQKLKTVYHYGKGICEQGSSRSYTFSVYIPSSFPDNATTIFAQWHGAPSRTLVATPEGEIKTLSIEEFLALYDRMIFKKNIAHDKVEKKDKAAKIAYVAGKPNGWKVEQGGYPTLAFGFSKGYFYIKANSDRQWLTDKADRNNANPENSEVMKPYSSEYKTSTIAYKMPFAQFPKDCWITFDVAIDWTKYGKEANTILKPGKLDVMMTYTKNKKPQKAHIVNQQEILIGRNDDDGYYFKFGIYRVGNSTVPVTYNLSGYSETAR
In general, Km refers to the substrate concentration at which the rate is half of its maximum. Regarding B1, in series [3], the “decrease in Kcat compared to wild-type r-heparinase I” value is roughly 5 fold, the Kcat stood at 20 s⁻¹ and the Michaelis constant (Km) came to 3.16 µM. Moreover, the Kd in series [4] stood at 116 µM. In addition, the K0.5 in series [5] (Table 4 second K0.5 column) was found to be 730 µM. Besides, the K0.5 in series [5] (setting [7]) was 730 µM. For the same molecule, the NaCl in series [6] stood at 495 mM.

B2: E381A/T382A: heparinase I CB-2 double mutant (protein, UniProt Q05819 22-384, looked up, variant E381A T382A)
Heparin lyase I: B1 Heparin lyase I with A191D, A192G, A195T, E360A, T361A
In the case of B2, in series [3], the Kcat was 10 s⁻¹ and the Km came to 1.75 µM. Also, the K0.5 in series [5] (Table 4 second K0.5 column) worked out at 180 µM. Besides, the K0.5 in series [5] (setting [7]) was determined as 180 µM. Moreover, the NaCl in series [6] is 505 mM.
